A short description of the data set: gradient 5% acetonitrile 3 min, to 50% in 2 min, to 85% in 15 min, held 3 min, 100 µL/min. The note with it: column: Zorbax Extend-C18 2.1 x 50 mm; eluents: water / acetonitrile, 0.1% formic acid. The essentials:
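Mixtures of ~100 pure standards were chromatographed on a Zorbax Extend-C18 column (2.1 × 50 mm, 1.8 μm) at 100 μL/min using water and acetonitrile, each with 0.1% formic acid. Detection used a quadrupole time-of-flight mass spectrometer in positive and negative ionization mode, and data collection spanned 3 months. Retention time was obtained from adduct peaks picked computationally and each checked manually.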
In turn, `CNC(=O)c1cn(-c2ccc(SCC(=O)Nc3ccc4c(c3)OCCO4)nn2)cn1` returned an RP-LC retention time of 645 s.
In the case of `Cc1cc(=O)n(CC(=O)Nc2ccc(F)cc2)c(N2CCCC2)n1` it was 618 s; in that of `O=C(NCc1ccc(F)c(Cl)c1)c1cn2c(n1)COCC2`, 690 s.
As for `CCCN(CCC)C1COc2cccc(OC)c2C1` (stereo not given), the figure is 722 s; as for `COc1ccc(NC(=O)N2CCc3nc(-c4ccc(F)cc4)ncc3C2)cc1`, 906 s.
As for `CCN(CC)CCNC(=O)c1c(-c2ccccc2)c(-c2ccccc2)nn(CC)c1=O`, the figure is 666 s; as for `Cc1cc(C)cc(-n2ncc3c(N4CCN(CCO)CC4)ncnc32)c1`, 649 s.
As for `c1csc(-c2nc(-c3ccc4c(c3)ncn4CCN3CCCC3)no2)c1`, the RP-LC retention time was 614 s.
As for `Cc1ccccc1NC(=O)NC1CCN(c2ccc(F)cc2)C1=O` (stereo not given), the figure is 792 s.
As for `CC1CCN(C(=O)c2cc(S(=O)(=O)N3CCCC(C(=O)Nc4nccs4)C3)c[nH]2)CC1` (stereo not given), the figure is 756 s.
Regarding `C[C@H]1CN(C(=O)Nc2ccc(Cl)cc2)C[C@@H]1c1nc(-c2ccncc2)no1`, the RP-LC retention time was determined as 821 s.
In the case of `CN(C1CCOCC1)C1CCN(C(=O)CCc2nc3ccccc3[nH]2)CC1` it was 519 s; in that of `Cc1nnc(N2CCCC(C(=O)NCc3cccnc3)C2)c2nn(-c3ccccc3)c(C)c12` (stereo not given), 579 s.
In the case of `Cc1cc(C)c(NC(=O)Cn2c(=O)cc(-c3nc(C4CC4)no3)c3ccccc32)c(C)c1` it was 999 s; in that of `CC(=O)N1c2ccc(S(=O)(=O)N3CCCCCC3)cc2CC1C(=O)NCCN(C)C` (stereo not given), 637 s.
In turn, `CC1=C(c2ccc(F)cc2)S(=O)(=O)N=C1N1CCCN(C(=O)C2CCCCC2)CC1` returned an RP-LC retention time of 883 s.
In the case of `Cc1cc(S(=O)(=O)N2CCn3c(nnc3C3CCN(C(C)C)C3)C2)ccc1Cl` (stereo not given) it was 637 s.
Compound `Cn1ncc2c(N3CCSCC3)nc(C(=O)N3CCN(Cc4ccccc4)CC3)nc21` had an RP-LC retention time of 600 s.
In the case of `O=C(C1CCN(c2ncccc2-c2nc(-c3ccccc3)no2)CC1)N1CCOCC1` it was 839 s.
As for `Cc1ccccc1-c1nnc(COc2ccc(NC(=O)Cc3cccs3)cc2)o1`, the figure is 976 s; as for `O=C(Nc1ccc(F)c(Cl)c1)Nc1nccn(-c2ccc(F)cc2)c1=O`, 1010 s; as for `Cc1nc(-c2ccc(F)cc2)sc1C(=O)N1CCC(C(C)C(=O)N2CCOCC2)CC1` (stereo not given), 745 s.
As for `COc1ccc(NC(=O)N(C)CC2CCOCC2)cc1Cl`, the figure is 712 s; as for `CC(=O)c1ccc(NC(=O)Cn2c(N3CCc4ccccc4C3)nc(C)cc2=O)cc1`, 727 s; as for `Cn1c(=O)c2c(ncn2CC(=O)N2CCC(Cc3nc(C4CCOCC4)no3)CC2)n(C)c1=O`, 610 s.
For `CCOC(=O)N1CCC(NC(=O)C2CCCN(c3ncnc4c3oc3ccccc34)C2)CC1` (stereo not given), the RP-LC retention time was 679 s.
In the case of `CCCN1C(=O)COc2ccc(-c3noc(COc4ccc(F)cc4)n3)cc21` it was 1090 s.
Compound `Cc1cc(C)cc(NC(=O)Nc2nccn(-c3cc(C)cc(C)c3)c2=O)c1` registered an RP-LC retention time of 1220 s.
As for `COC(=O)c1c(C)[nH]c(C(=O)N2CCC(CC(=O)NCCC(C)C)CC2)c1C`, the figure is 716 s.
In the case of `CCCn1cc(-c2ccncc2)cc1C(=O)NCc1ccc(F)cc1` it was 680 s; in that of `Cc1cc(C(=O)NC(C)C)c2cc(F)ccc2n1`, 639 s; in that of `CCCN1CN=C(Nc2nc(C)c3cccc(OC)c3n2)NC1`, 644 s.
In the case of `CCc1cccc(C)c1NC(=O)Cn1nc(N2CCC(C)CC2)c2ccccc2c1=O` it was 1160 s; in that of `O=S(=O)(c1cccc(Cl)c1)N1CCN(c2cnn3c(C4CC4)nnc3c2)CC1`, 756 s.
In turn, `Cc1cc(OCC(=O)NCCN(C)C)cc(C)c1Cl` came in with an RP-LC retention time of 629 s.
In the case of `COc1ccc(-c2cc3c(=O)n(Cc4nc(-c5ccccc5OC)oc4C)ccn3n2)cc1` it was 975 s; in that of `Cn1c(=O)c(SCC(=O)NCc2ccccc2F)nc2ccccc21`, 785 s.
As for `COc1cccc(CN2CCc3nn(C)c(=O)n3CC2)n1`, the figure is 544 s; as for `CCSc1nc2ccc(NS(=O)(=O)Cc3cc(C)ccc3C)cc2s1`, 1150 s.
Compound `CN1C(=O)c2cccn2CC1C(=O)Nc1ccccc1F` (stereo not given) gave an RP-LC retention time of 673 s.
As for `CCS(=O)(=O)N1CC(=O)N(c2cc(C)ccc2C)C(C)(C(=O)NC2CCCC2)C1` (stereo not given), the figure is 834 s; as for `COc1ccc(-c2nc(Cn3ccn4nc(-c5ccccc5OC)cc4c3=O)c(C)o2)cc1`, 1100 s.
Consider `CCOC(=O)C1CCN(C(=O)C(C)n2c(=O)c(C(F)(F)F)nc3cc(C)c(C)cc32)CC1` (stereo not given), for which the RP-LC retention time was determined as 1170 s.
In turn, `Cc1ccc(-c2nnc(-c3cccc(S(=O)(=O)N4CCC(C(=O)O)CC4)c3)o2)cc1` showed an RP-LC retention time of 860 s.
`COc1ccc(NC(=O)N2CCC(Cc3nc4cccnc4n3C(C)C)C2)c(OC)c1` (stereo not given) displayed an RP-LC retention time of 626 s.
In the case of `COc1ccc(-c2nnc(N3CCC(C(=O)NCC4CCCCC4)CC3)o2)cc1` it was 887 s; in that of `COc1ccc(C2(C(=O)N3CCCC3c3nc(-c4ccccc4Cl)no3)CC2)cc1` (stereo not given), 1070 s; in that of `Cc1oc(-c2[nH]ncc2C(=O)N2CCCCC2)cc1S(=O)(=O)NCc1ccncc1`, 575 s.
As for `O=C(CN1CCCCC1c1nc(-c2ccc(F)cc2)no1)NCc1cccs1` (stereo not given), the figure is 1020 s; as for `CCNC(=O)C1CCCN(c2nc3ncn(CC(=O)Nc4ccccc4)c(=O)c3s2)C1` (stereo not given), 644 s.
As for `CCOC(=O)c1c(C)[nH]c(CCC(=O)NC(C)C)c1C`, the figure is 729 s; as for `Cc1cccc(NC(=O)N2CCC(c3cc(N)on3)CC2)c1C`, 685 s.
Take `CCn1c(=O)sc2cc(S(=O)(=O)N3CCC(C(=O)Nc4cccc(C)n4)CC3)ccc21`: the RP-LC retention time stood at 768 s.
In the case of `COc1ccc(-c2csc(NC(=O)Cc3csc(C)n3)n2)cc1` it was 828 s; in that of `Cc1ccc(Cn2c(=O)n(CCNC(=O)c3ccc(C)s3)c3ncccc32)cc1`, 840 s.
Turning to `Cc1cccn2cc(C(=O)NCc3ccc4c(c3)OCO4)nc12`, the RP-LC retention time worked out at 679 s.
Turning to `CC(C)(C)c1csc(-c2csc(S(=O)(=O)Nc3ccc(Cl)cc3)c2)n1`, the RP-LC retention time was 1300 s.
In the case of `Cc1c(S(=O)(=O)NCc2ccc3c(c2)CCN3C(=O)CC(C)C)cnn1C(F)F`, the RP-LC retention time turned out to be 911 s.
In the case of `O=c1c2c([nH]c3ccc(Cl)cc13)CCN(Cc1ccc(F)cc1)C2` it was 620 s; in that of `Cc1ccc(-c2ccc(=O)n(CCCC(=O)N3CCc4ccccc43)n2)cc1`, 880 s.
As for `Cn1c(=O)c(=O)n(C)c2cc(N3CCCCC3)c(NC(=O)C3CCCCC3)cc21`, the figure is 940 s; as for `CS(=O)(=O)c1ccc(NC(=O)CSc2ccc(N3CCCC(C(=O)NC4CC4)C3)nn2)cc1` (stereo not given), 608 s.
As for `COc1cccc(-n2c(N3CCC(C(=O)NCC(C)C)CC3)nc3ccsc3c2=O)c1`, the figure is 773 s.
In turn, `Cn1c(=O)c(=O)n(C)c2cc(Oc3ccccc3)c(NC(=O)C3CCCCC3)cc21` returned an RP-LC retention time of 870 s.
In the case of `CCN(CC)c1nc2ccsc2c(=O)n1CC(=O)NCc1ccc(F)cc1F` it was 868 s; in that of `Cc1nc(-c2ccccc2)cc2nn(CC(=O)Nc3ccc(F)cc3Cl)c(=O)n12`, 967 s; in that of `CCn1c(=O)c2c(cc(C)n2C)n(CC(=O)Nc2cc(Cl)ccc2C)c1=O`, 810 s.
As for `CCCn1nnc2cc(-c3noc(C4CC(=O)N(c5ccccc5)C4)n3)ccc21` (stereo not given), the figure is 930 s; as for `COCCN1C(=O)Cc2ccccc2C1C(=O)NCc1ccc(C(C)C)cc1` (stereo not given), 861 s; as for `O=C1NC(=S)S/C1=C\c1cc(Br)ccc1OCc1ccccc1Br`, 1270 s.
As for `O=C(CCc1ccc2cc[nH]c2c1)NCc1ccc(F)cc1`, the figure is 808 s; as for `O=C(Cn1ccc2ccc(N3CCOCC3)nc21)NCc1ccc(F)cc1F`, 870 s.
Turning to `NC(=O)C1CCN(C(=O)c2cncc(NS(=O)(=O)c3ccc(F)cc3)c2)CC1`, the RP-LC retention time came out at 606 s.
As for `CCN(CC)CCCCN1c2ccccc2Oc2ccc(Cl)cc21`, the figure is 843 s.
As for `CCC(=O)Nc1ccc2c(c1)CN(C(=O)CCc1ccccc1)C(C(=O)N1CCCC1)C2` (stereo not given), the figure is 708 s; as for `Cn1cnc2cc(CNC(=O)C3CCCC3)ccc21`, 586 s.
As for `CCC(C)NC(=O)c1sc(-c2cn(C(C)C)c3ncccc23)nc1C` (stereo not given), the figure is 931 s.
Consider `Cc1sc(NC(=O)CN(C)S(C)(=O)=O)c(C#N)c1C`, for which the RP-LC retention time is 719 s.
In the case of `N#Cc1ccc(CN2C[C@@H](CO)[C@H](c3ccccn3)C2)cc1` it was 569 s.
In the case of `CC1(C)C(=O)N(CC(=O)Nc2ccc3c(c2)OCCO3)c2ccccc21` it was 823 s.
